Experimental data taken from ChEMBL document CHEMBL5537197, “Discovery of Novel Coumarin-quinolinium Derivatives as Pan-KRAS Translation Inhibitors by Targeting 5'-UTR RNA G-Quadruplexes” (J Med Chem, 2024).

Key:
Type in all cases: functional, cell-based
[1] = test system: MIA PaCa-2; assay: Cytotoxicity against human MIA PaCa-2 cells harboring KRAS G12C mutant assessed as cell growth inhibition incubated for 24 hrs by MTT assay; settings: MIA PaCa-2, 24 h
[2] = test system: PANC-1; assay: Cytotoxicity against human PANC-1 cells harboring KRAS G12D mutant assessed as cell growth inhibition incubated for 24 hrs by MTT assay; settings: PANC-1, 24 h
[3] = Cytotoxicity against human PANC-1 cells […] assessed as cell growth inhibition incubated for 24 hrs by MTT assay; settings: PANC-1, 24 h
[4] = test system: NCM460; assay: Cytotoxicity against human NCM460 cells harboring wild-type KRAS assessed as cell growth inhibition incubated for 24 hrs by MTT assay; settings: NCM460, 24 h

Structure (SMILES) | IC50 [1] [µM] | IC50 [2] [µM] | IC50 [3] [µM] | IC50 [4] [µM]
CCN(CC)c1ccc2cc(/C=C/c3ccc4cc(F)c(N5CCN(Cc6cn(CCc7cccs7)nn6)CC5)cc4[n+]3C)c(=O)oc2c1 | 6.8 | 23.8 | > 40 | > 40
CCN(CC)c1ccc2cc(/C=C/c3cc(NCCN4CCCC4)c4cc(F)c(NCCN5CCCC5)cc4[n+]3C)c(=O)oc2c1 | 17 | > 40 | > 40 | > 40
CCN(CC)CCCn1cc(CNc2cc3c(cc2F)c(N2CCN(C)CC2)cc(/C=C/c2cc4ccc(N(CC)CC)cc4oc2=O)[n+]3C)nn1 | > 40 | > 40 | > 40 | > 40
CCN(CC)c1ccc2cc(/C=C/c3cc(N4CCN(C)CC4)c4cc(F)c(NCc5cn(CCC(=O)O)nn5)cc4[n+]3C)c(=O)oc2c1 | > 40 | > 40 | > 40 | > 40
CCN(CC)c1ccc2cc(/C=C/c3ccc4cc(F)c(N5CCCCC5)cc4[n+]3C)c(=O)oc2c1 | 11.4 | 20.6 | > 40 | > 40
CCN(CC)c1ccc2cc(/C=C/c3ccc4cc(F)c(N5CCN(Cc6cn(CCCN(C)C)nn6)CC5)cc4[n+]3C)c(=O)oc2c1 | > 40 | > 40 | > 40 | > 40
CCCCN(CCCC)CCCn1cc(CN2CCN(c3cc4c(ccc(/C=C/c5cc6ccc(N(CC)CC)cc6oc5=O)[n+]4C)cc3F)CC2)nn1 | 7 | 26 | > 40 | > 40
CCN(CC)c1ccc2cc(/C=C/c3ccc4cc(F)c(N5CCN(Cc6cn(CCCN7CCOCC7)nn6)CC5)cc4[n+]3C)c(=O)oc2c1 | 23.4 | > 40 | > 40 | > 40
CCN(CC)c1ccc2cc(/C=C/c3ccc4cc(F)c(NCCCOC(C)C)cc4[n+]3C)c(=O)oc2c1 | 1.5 | 2.9 | 6 | 23.2
CCN(CC)c1ccc2cc(/C=C/c3ccc4cc(F)c(NCCN(C(C)C)C(C)C)cc4[n+]3C)c(=O)oc2c1 | 1.3 | 3.4 | 13 | 15
CCN(CC)c1ccc2cc(/C=C/c3ccc4cc(F)c(Nc5ccc(N6CCN(C)CC6)nc5)cc4[n+]3C)c(=O)oc2c1 | 9 | > 40 | > 40 | 10.4
CCN1CCN(c2ccc(Nc3cc4c(ccc(/C=C/c5cc6ccc(N(CC)CC)cc6oc5=O)[n+]4C)cc3F)cc2)CC1 | 8.8 | 15.2 | > 40 | > 40
CCN(CC)c1ccc2cc(/C=C/c3ccc4cc(F)c(Nc5ccc6nc(C)[nH]c6c5)cc4[n+]3C)c(=O)oc2c1 | 12 | 13 | > 40 | 14.8
CCN(CC)c1ccc2cc(/C=C/c3ccc4cc(F)c(N5CCN(Cc6cn([C@@H]7O[C@H](CO)[C@@H](O)[C@H](O)[C@H]7O)nn6)CC5)cc4[n+]3C)c(=O)oc2c1 | > 40 | > 40 | > 40 | > 40
CCN(CC)CCCn1cc(CN2CCN(c3cc4c(ccc(/C=C/c5cc6ccc(N(CC)CC)cc6oc5=O)[n+]4C)cc3F)CC2)nn1 | > 40 | > 40 | > 40 | > 40
CCN(CC)c1ccc2cc(/C=C/c3cc(N4CCN(C)CC4)c4cc(F)c(NCc5cn(CCC(=O)OC)nn5)cc4[n+]3C)c(=O)oc2c1 | > 40 | > 40 | > 40 | > 40
CCN(CC)c1ccc2cc(/C=C/c3cc(N4CCN(C)CC4)c4cc(F)c(N5CCN(C)CC5)cc4[n+]3C)c(=O)oc2c1 | 16 | 26.4 | > 40 | > 40
CCN(CC)c1ccc2cc(/C=C/c3ccc4cc(F)c(NCCOCCO)cc4[n+]3C)c(=O)oc2c1 | 9.8 | > 40 | > 40 | > 40
CCN(CC)c1ccc2cc(/C=C/c3ccc4cc(F)c(NCCCn5ccnc5)cc4[n+]3C)c(=O)oc2c1 | 13.4 | > 40 | > 40 | > 40
CCN(CC)c1ccc2cc(/C=C/c3ccc4cc(F)c(NCCc5nc6ccccc6[nH]5)cc4[n+]3C)c(=O)oc2c1 | 4 | 19.2 | > 40 | > 40
CCN(CC)c1ccc2cc(/C=C/c3cc(N4CCN(C)CC4)c4cc(F)c(NCc5cn(CCCN6CCCC6)nn5)cc4[n+]3C)c(=O)oc2c1 | > 40 | > 40 | > 40 | > 40
CCN(CC)c1ccc2cc(/C=C/c3ccc4cc(F)c(N5CCN(Cc6cn(CCCO)nn6)CC5)cc4[n+]3C)c(=O)oc2c1 | > 40 | > 40 | > 40 | > 40
